Experimental data published in ChEMBL document CHEMBL4265889, “Design and synthesis of tetrahydropyridopyrimidine based Toll-Like Receptor (TLR) 7/8 dual agonists” (Bioorg Med Chem Lett, 2018).

What was measured:
[1] = target: T1, Toll-like receptor 7 (Homo sapiens) (UniProt Q9NYK1); test: Agonist activity at human TLR7 expressed in HEK293 cells after 6 hrs by NFkappaB-luciferase reporter gene assay; format: cell-based
T1 sequence (whole entry): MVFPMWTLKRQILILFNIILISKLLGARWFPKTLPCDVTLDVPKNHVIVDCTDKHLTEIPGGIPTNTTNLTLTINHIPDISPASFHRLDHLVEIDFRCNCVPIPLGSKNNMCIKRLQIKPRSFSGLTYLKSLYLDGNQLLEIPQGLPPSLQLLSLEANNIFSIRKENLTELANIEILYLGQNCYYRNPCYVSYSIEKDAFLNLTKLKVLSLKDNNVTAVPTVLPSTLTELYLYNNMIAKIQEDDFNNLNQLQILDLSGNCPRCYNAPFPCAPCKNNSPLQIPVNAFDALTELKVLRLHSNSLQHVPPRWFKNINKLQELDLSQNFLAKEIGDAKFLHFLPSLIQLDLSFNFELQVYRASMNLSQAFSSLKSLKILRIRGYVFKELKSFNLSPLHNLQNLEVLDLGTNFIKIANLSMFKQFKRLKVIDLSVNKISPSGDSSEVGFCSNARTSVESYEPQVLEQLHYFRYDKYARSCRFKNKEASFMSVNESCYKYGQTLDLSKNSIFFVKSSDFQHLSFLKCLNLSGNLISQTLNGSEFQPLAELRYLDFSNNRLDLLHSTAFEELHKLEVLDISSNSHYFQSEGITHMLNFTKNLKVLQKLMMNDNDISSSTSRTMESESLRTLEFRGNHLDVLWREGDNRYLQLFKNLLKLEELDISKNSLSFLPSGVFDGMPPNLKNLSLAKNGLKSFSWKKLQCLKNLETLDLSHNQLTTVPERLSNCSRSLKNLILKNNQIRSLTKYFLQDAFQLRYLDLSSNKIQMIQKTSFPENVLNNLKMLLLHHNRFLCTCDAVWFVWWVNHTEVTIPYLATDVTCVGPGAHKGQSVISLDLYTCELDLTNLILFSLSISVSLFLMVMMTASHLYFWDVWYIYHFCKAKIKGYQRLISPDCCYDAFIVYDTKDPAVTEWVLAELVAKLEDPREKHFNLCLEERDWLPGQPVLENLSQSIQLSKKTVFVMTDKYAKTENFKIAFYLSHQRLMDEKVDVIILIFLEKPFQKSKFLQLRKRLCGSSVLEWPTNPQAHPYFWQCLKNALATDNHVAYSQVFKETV

[2] = Cytotoxicity against HEK293 cells transfected with the CMV-TLR7 construct assessed as reduction in cell viability after 6 hrs by ATPlite assay; format: cell-based; conditions: human
[3] = target: T1, Toll-like receptor 7 (Homo sapiens); test: Agonist activity at TLR7 in human PBMC assessed as suppression of HCV replicon replication in human HuH7 luc/neo cells harboring RNA encoding bicistronic expression construct comprising wild type HCV type 1b NS3-NS5B regions exposed to conditioned media from compound treated PBMCs after 24 hrs by luciferase reporter gene assay; format: cell-based
[4] = target: Voltage-gated inwardly rectifying potassium channel KCNH2 (Homo sapiens, UniProt Q12809); test: Displacement of 3H-dofetilide from human ERG
[5] = Drug metabolism in mouse liver microsomes at 1 uM after 15 mins; format: ADME, microsome; conditions: read-out: Drug metabolism
[6] = Drug metabolism in human liver microsomes at 1 uM after 15 mins; format: ADME, microsome; conditions: read-out: Drug metabolism
[7] = Tmax in C57BL/6 mouse plasma at 5 mg/kg, po; format: ADME, organism-based
[8] = Cmax in C57BL/6 mouse plasma at 5 mg/kg, po; format: ADME, organism-based; parameters: dose 5 mg/kg, route oral
[9] = Cmax in C57BL/6 mouse liver at 5 mg/kg, po; format: ADME, organism-based; parameters: dose 5 mg/kg, route oral
[10] = AUC (0 to last) in C57BL/6 mouse plasma at 5 mg/kg, po; format: ADME, organism-based; parameters: dose 5 mg/kg, route oral, time 0 - last
[11] = AUC (0 to last) in C57BL/6 mouse liver at 5 mg/kg, po; format: ADME, organism-based; conditions: in vivo
[12] = Protein binding in mouse plasma; format: ADME, cell-free; conditions: read-out: PPB (converted)
Cytochrome P450 3A4 = Cytochrome P450 3A4 (Homo sapiens, UniProt P08684); test: Inhibition of CYP3A4 (unknown origin); format: ADME
Cytochrome P450 2C8 = target: T2, Cytochrome P450 2C8 (Homo sapiens, UniProt P10632); test: Inhibition of CYP2C8 (unknown origin); format: ADME
T2 sequence (P10632 whole entry): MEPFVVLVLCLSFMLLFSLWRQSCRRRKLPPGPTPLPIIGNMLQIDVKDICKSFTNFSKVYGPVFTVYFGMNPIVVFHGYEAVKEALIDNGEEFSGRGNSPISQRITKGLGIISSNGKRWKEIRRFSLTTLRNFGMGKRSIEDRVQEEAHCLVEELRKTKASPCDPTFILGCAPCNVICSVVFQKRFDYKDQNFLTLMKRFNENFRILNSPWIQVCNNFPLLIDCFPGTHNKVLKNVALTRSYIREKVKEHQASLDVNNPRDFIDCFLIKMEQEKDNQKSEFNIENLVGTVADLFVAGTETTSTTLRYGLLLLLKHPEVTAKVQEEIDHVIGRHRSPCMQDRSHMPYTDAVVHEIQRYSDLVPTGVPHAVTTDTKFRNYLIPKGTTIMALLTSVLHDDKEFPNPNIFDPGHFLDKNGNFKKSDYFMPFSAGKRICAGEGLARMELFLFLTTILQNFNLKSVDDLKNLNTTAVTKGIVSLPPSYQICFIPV

Cytochrome P450 2C9 = Cytochrome P450 2C9 (Homo sapiens, UniProt P11712); test: Inhibition of CYP2C9 (unknown origin); format: ADME
Cytochrome P450 2D6 = Cytochrome P450 2D6 (Homo sapiens, UniProt P10635); test: Inhibition of CYP2D6 (unknown origin); format: ADME
Cytochrome P450 2C19 = Cytochrome P450 2C19 (Homo sapiens, UniProt P33261); test: Inhibition of CYP2C19 (unknown origin); format: ADME
Homo sapiens [13] = organism: Homo sapiens; test: Binding affinity to histamine receptor (unknown origin)
[14] = target: Dopamine receptor (Homo sapiens) (UniProt P14416+P35462+P21918+P21917+P21728); test: Binding affinity to dopamine receptor (unknown origin); format: protein assay
Homo sapiens [15] = organism: Homo sapiens; test: Binding affinity to serotonin receptor (unknown origin)

Sequence of Voltage-gated inwardly rectifying potassium channel KCNH2 (Q12809 whole entry): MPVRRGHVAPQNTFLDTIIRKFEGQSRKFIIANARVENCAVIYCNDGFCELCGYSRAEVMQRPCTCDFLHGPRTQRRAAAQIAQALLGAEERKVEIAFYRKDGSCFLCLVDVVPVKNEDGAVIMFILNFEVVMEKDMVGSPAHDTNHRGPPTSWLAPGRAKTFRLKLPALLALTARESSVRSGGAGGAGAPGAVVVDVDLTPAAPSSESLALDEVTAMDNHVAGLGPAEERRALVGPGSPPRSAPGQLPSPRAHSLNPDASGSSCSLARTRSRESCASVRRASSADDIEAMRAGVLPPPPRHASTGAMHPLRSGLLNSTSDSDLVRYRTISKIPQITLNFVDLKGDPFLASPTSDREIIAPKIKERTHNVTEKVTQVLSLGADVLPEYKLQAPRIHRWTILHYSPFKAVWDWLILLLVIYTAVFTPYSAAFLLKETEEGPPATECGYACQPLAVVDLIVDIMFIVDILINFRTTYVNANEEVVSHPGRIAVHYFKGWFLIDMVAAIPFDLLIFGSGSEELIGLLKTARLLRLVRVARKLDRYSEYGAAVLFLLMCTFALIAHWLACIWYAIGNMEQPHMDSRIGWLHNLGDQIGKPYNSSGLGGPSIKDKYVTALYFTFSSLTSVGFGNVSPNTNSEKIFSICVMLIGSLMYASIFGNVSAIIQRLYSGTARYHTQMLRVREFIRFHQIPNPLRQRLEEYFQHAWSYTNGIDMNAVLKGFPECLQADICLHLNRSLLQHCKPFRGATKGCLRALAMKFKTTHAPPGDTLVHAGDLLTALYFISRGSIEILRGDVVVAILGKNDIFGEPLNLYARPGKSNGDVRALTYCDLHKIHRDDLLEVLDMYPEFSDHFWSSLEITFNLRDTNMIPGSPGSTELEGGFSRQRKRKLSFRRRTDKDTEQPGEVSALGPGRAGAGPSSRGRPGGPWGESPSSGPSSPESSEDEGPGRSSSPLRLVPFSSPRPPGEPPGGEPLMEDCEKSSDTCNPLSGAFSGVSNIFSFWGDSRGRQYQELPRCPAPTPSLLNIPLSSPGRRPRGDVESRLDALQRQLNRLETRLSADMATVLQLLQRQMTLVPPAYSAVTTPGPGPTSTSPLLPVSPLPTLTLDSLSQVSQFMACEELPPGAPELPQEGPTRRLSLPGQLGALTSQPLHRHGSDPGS
Sequence of Cytochrome P450 2C19 (P33261 whole entry): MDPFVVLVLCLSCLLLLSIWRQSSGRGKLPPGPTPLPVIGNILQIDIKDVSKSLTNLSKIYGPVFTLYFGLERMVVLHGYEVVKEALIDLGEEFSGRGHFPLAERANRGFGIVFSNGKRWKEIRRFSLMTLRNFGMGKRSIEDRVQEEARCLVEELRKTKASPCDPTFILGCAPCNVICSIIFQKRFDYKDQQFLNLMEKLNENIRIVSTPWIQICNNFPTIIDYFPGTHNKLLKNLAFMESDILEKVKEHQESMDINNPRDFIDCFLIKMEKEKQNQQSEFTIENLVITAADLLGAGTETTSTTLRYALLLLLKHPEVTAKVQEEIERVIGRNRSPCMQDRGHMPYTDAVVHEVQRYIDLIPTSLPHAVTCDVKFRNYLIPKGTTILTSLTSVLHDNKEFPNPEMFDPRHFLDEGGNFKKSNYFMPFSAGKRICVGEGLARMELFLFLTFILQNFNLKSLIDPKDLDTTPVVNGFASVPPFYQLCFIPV
Sequence of Cytochrome P450 2D6 (P10635 whole entry): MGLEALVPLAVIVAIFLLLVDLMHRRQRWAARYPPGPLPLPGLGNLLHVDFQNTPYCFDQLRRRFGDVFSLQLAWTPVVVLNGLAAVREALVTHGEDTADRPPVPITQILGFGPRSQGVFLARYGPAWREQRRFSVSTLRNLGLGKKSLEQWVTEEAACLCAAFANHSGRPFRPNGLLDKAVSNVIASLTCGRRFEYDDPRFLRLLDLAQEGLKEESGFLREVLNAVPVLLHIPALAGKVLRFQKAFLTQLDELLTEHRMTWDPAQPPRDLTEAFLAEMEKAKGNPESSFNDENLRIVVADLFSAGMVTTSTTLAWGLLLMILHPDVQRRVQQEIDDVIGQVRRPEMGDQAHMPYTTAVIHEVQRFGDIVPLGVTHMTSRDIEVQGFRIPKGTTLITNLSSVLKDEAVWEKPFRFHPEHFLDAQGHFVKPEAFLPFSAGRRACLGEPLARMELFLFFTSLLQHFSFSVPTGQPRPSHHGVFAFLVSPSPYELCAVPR
Sequence of Cytochrome P450 2C9 (P11712 whole entry): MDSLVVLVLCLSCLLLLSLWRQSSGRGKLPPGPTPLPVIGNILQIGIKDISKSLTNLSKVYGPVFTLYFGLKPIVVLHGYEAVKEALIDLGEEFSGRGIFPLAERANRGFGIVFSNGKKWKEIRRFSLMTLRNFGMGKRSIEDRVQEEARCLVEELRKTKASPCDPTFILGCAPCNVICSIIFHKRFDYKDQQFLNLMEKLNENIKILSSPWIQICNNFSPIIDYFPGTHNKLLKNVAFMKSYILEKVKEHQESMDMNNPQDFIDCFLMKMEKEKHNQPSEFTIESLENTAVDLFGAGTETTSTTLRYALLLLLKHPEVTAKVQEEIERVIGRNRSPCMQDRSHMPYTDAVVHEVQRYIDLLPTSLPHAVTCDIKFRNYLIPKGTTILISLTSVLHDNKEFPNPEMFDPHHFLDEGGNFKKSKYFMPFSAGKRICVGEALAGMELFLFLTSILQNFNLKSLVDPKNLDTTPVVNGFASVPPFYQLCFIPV
Sequence of Cytochrome P450 3A4 (P08684 whole entry): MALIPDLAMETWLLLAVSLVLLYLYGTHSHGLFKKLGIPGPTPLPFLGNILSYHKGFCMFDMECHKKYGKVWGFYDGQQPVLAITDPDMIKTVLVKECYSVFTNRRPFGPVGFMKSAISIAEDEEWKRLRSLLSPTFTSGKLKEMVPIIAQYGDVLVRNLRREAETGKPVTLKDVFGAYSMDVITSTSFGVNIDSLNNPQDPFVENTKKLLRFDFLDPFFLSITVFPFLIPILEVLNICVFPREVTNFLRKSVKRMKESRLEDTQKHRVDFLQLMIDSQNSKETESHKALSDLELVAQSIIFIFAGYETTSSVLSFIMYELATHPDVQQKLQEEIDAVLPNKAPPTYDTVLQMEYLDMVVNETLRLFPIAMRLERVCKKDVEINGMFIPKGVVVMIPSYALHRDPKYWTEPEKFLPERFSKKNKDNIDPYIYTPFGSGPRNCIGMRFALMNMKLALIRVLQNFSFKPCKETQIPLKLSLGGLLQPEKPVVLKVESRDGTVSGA

## CCC[C@@H](CCO)Nc1nc(N)nc2c1CN(C(=O)c1csc(C)n1)CC2
[1]
  MEC: 1.5 µM
[2]
  CC50 at 6 h: > 24 µM
[3]
  MEC: 0.2 µM
[4]
  IC50: 22 µM
[5]
  metabolised at 0.25 h, 1 µM: 33%
[6]
  metabolised at 0.25 h, 1 µM: 21%
[7]
  Tmax: 30 min
[8]
  Cmax: 29 ng/mL
[9]
  Cmax: 711 ng/g
[10]
  AUC(0-t): 70 ng·h/mL
[11]
  AUClast: 1410 ng·h/g
[12]
  fraction unbound: 0.7
Cytochrome P450 3A4
  IC50: > 10 µM
Cytochrome P450 2C8
  IC50: > 10 µM
Cytochrome P450 2C9
  IC50: > 10 µM
Cytochrome P450 2D6
  IC50: > 10 µM
Cytochrome P450 2C19
  IC50: > 10 µM
Homo sapiens [13]
  Activity: > 10 µM
[14]
  Activity: > 10 µM
Homo sapiens [15]
  Activity: > 10 µM
